Consider 6 compounds from US7812034B2, “Method of using protease inhibitors for the treatment of liposarcomas” (City of Hope, priority 2003, dated 2010).

For data set [1], the system named is advanced soft tissue sarcomas. The note with it: patients; cited from earlier work.
In a further data set the test system is SW872 liposarcoma cells. In words: Clonogenic assay, SW872 liposarcoma cells. It is filed as cell-based, human. The note with it: for concentration that inhibits SW872 liposarcoma clonogenicity (colony growth): 4 hours treatment, 2000 cells plated, colonies scored at 7-10 days, FIG. 1. How it is done:
The experimental conditions were intended to bracket these clinically relevant concentrations.
Two thousand treated cells were plated into 60 mm tissue culture plates in triplicate, and colonies (≧40 cells/colony) were scored at 7-10 days with the Eagle Eye II gel documentation system (Stratagene, La Jolla, Calif.). FIG. 1 summarizes the mean and standard deviation of the triplicate colony counts for each experimental condition. […] Ritonavir inhibits colony growth if administered in a concentration of at least 10 μM.
(§1) One thousand treated cells were plated in triplicate in this instance, and colonies were similarly scored.

Data set [2] concerns human 293 embryonic kidney cells. In words: Clonogenic assay, 293 embryonic kidney cells. It is filed as cell-based. The note with it: increasing concentrations, 1000 cells plated, FIG. 2. How it is done:
as §1

Data set [3] relates to human HT1080 fibrosarcoma cells. In words: Clonogenic assay, HT1080 fibrosarcoma cells. It is filed as cell-based. The note with it: increasing concentrations, 1000 cells plated, FIG. 2. Here is the method:
as §1

Another data set has as its system S2 liposarcoma cell line. Put plainly: Clonogenic assay, S2 high-grade liposarcoma cells. It is filed as cell-based, human. The note with it: 2.5, 10, 20 μM, 4 hours, FIG. 3. Here is the method:
A second high-grade liposarcoma cell line, S2 (a kind gift from Dr. Wei Wen, City of Hope Medical Center), was tested for protease inhibitor (PI) therapy for liposarcoma. The purpose of the experiment was to determine whether nelfinavir-mediated inhibition of liposarcoma clonogenicity could be reproduced in S2 cells. As with the SW872 experiment, S2 cells […], indinavir, ritonavir, and saquinavir. […] Colonies (≧40 cells/colony) were scored at 7-10 days with the Eagle Eye II gel documentation system (Stratagene, La Jolla, Calif.). FIG. 3 summarizes the mean and standard deviation of the triplicate colony counts for each experimental condition.

Data set [4] deals with SREBP-1. In words: Western blot of SREBP-1 protein in S2 cells. It is filed as cell-based, human. The note with it: 10 μM, FIG. 4. From the text: In order to influence transcription, the NH2-terminal domain of SREBP-1 must be proteolytically released from the membrane to enter the nucleus (68 kDa).
In data set [5] the test system is SREBP-1. In words: SREBP-1 protein levels in SW872 cells. It is filed as cell-based, human. How it is done: In order to influence transcription, the NH2-terminal domain of SREBP-1 must be proteolytically released from the membrane to enter the nucleus (68 kDa). […] Alterations in both SREBP-1 and PPARγ levels have been proposed as the mechanisms underlying of HIV protease-induced lipodystrophy (15-18, 21). To determine whether a similar mechanism is responsible for the observation of nelfinavir-mediated inhibition of liposarcoma clonogenicity, whole cell extracts are prepared from control and nelfinavir-treated SW872 cells for SDS-PAGE electrophoresis. After transfer to polyvinylidene fluoride membranes, the extracts are probed with rabbit polyclonal antibodies to SREBP-1 and PPARγ (Santa Cruz Biotechnology, Santa Cruz, Calif.). Protein detection is performed by ECL using commercially available reagents as per the manufacturer's instructions (Applied Biosystems, Foster City, Calif.). To control for protein-loading, the membranes are stripped and reprobed with antibody to β-actin (Santa Cruz Biotechnology).

The conditions of data set [6]: humans, cited from earlier work; for Cmax: recommended dose and regimen, read-out: maximum plasma concentration (Cmax).
The conditions of data set [7]: cited from earlier work.
The conditions of data set [8]: cited from earlier work. The source holds these as a separate data set.
The subject of data set [9] is differentiated adipocytes. The note with it: incubation for 48 hours; cited from earlier work.
Another data set has as its system pre-adipocytes. The note with it: incubation for 48 hours; cited from earlier work.
The test system of data set [10] is intermediate to high-grade liposarcoma. The note with it: patients with liposarcoma; cited from earlier work.

Like-named read-outs stand apart in the source and are kept apart here.

Regarding `COc1cccc2c1C(=O)c1c(O)c3c(c(O)c1C2=O)C[C@@](O)(C(=O)CO)C[C@@H]3O[C@H]1C[C@H](N)[C@H](O)[C@H](C)O1` [doxorubicin], the response rate entry in data set [1] was “about 25%”.
As to `Cc1c(O)cccc1C(=O)N[C@@H](CSc1ccccc1)[C@H](O)CN1C[C@H]2CCCC[C@H]2C[C@H]1C(=O)NC(C)(C)C` [nelfinavir], in the data set with SW872 liposarcoma cells, the “concentration that inhibits SW872 liposarcoma clonogenicity (colony growth)” value is ≥ 2.5 µM. In addition, the “colonies in the SW872 cell line” value in the data set with SW872 liposarcoma cells (nelfinavir 20 μM, 1000 cells plated, FIG. 2) is listed as “marked reduction in colonies”. For the same compound, in data set [2], the “embryonic kidney (293) clonogenicity” value is given as “minimally affecting”. The “fibrosarcoma (HT1080) clonogenicity” value in [3] is given as “minimally affecting”. Also, the “clonogenicity in the S2 liposarcoma cell line” value in the data set with S2 liposarcoma cell line was “inhibits clonogenicity”. Further, in the data set with SREBP-1 [4], the “SREBP-1 protein (nuclear active and precursor forms)” value is on record as “upregulated in a time-dependent fashion”. Also, the “expression of SREBP-1” value with SREBP-1 [5] was “upregulates expression of SREBP-1”. In addition, the oral bioavailability in [6] (administered with food) is recorded as 70-80%; in [7] (fed rats) it was 43%. Also, the Cmax in data set [6] is 6.97 µM; in data set [7] (rat, daily gavage 50 mg/kg in 5% dextrose or propylene glycol-water, read-out: plasma Cmax), 2.33 to 2.87 µM. In addition, the “plasma Cmax” value in [7] (rat, daily gavage 50 mg/kg in 5% dextrose or propylene glycol-water) is 1340 to 1650 ng/mL. Also, in [7] (rat, oral 50 mg/kg), the “time plasma levels were maintained after dosing” value was “up to 7 hours”. In data set [8], the water solubility result was “water-soluble”. For the same compound, the “apoptosis in differentiated adipocytes” value in [9] was “induced apoptosis”. Besides, the apoptosis in pre-adipocytes entry in the data set on pre-adipocytes was “not in pre-adipocytes”.
Consider `CC(C)(C)NC(=O)[C@@H]1CN(Cc2cccnc2)CCN1C[C@@H](O)C[C@@H](Cc1ccccc1)C(=O)N[C@H]1c2ccccc2C[C@H]1O` [indinavir], for which the Cmax in data set [6] was 12.5 µM.
For `Cc1c(C)c2c(c(C)c1O)CCC(C)(COc1ccc(CC3SC(=O)NC3=O)cc1)O2` (centres unmarked) [troglitazone], the toxicity of therapy entry in [10] is given as “negligible”.
As to `CC(C)c1nc(CN(C)C(=O)N[C@H](C(=O)N[C@@H](Cc2ccccc2)C[C@H](O)[C@H](Cc2ccccc2)NC(=O)OCc2cncs2)C(C)C)cs1` [ritonavir], in the data set on SW872 liposarcoma cells, the “concentration that inhibits SW872 liposarcoma clonogenicity (colony growth)” value is given as “at least 10 μM”. Further, in data set [6], the Cmax was 15.5 µM. In data set [9], the “apoptosis in differentiated adipocytes” value was “induced apoptosis”. Moreover, in the data set on pre-adipocytes, the apoptosis in pre-adipocytes entry is “not in pre-adipocytes”.
With `CC(C)(C)NC(=O)[C@@H]1C[C@@H]2CCCC[C@@H]2CN1C[C@@H](O)[C@H](Cc1ccccc1)NC(=O)[C@H](CC(N)=O)NC(=O)c1ccc2ccccc2n1` [saquinavir], in data set [6], the Cmax was 3.67 µM. Further, the “apoptosis in differentiated adipocytes” value in [9] is “induced apoptosis”. Besides, in the data set with pre-adipocytes, the apoptosis in pre-adipocytes result is on record as “not in pre-adipocytes”.
